US20230374038A1, “MODULATORS OF CYSTIC FIBROSIS TRANSMEMBRANE CONDUCTANCE REGULATOR” (VERTEX PHARMACEUTICALS INCORPORATED, priority 2020, published 2023)

Experiments:
CFTR [1] = molecular target: T1, CFTR (Homo sapiens, UniProt P13569, DEL508-508); assay: HBE Assay: Ussing chamber assay of CFTR-mediated short-circuit currents in F508del/MF-HBE cells with 1 μM Ivacaftor; type: cell-based; conditions: 20% human serum; for HBE Activity at 10 μM: single fixed concentration of 10 μM; for Emax: compared to known Vertex corrector with 18 μM Tezacaftor and 1 μM Ivacaftor, read-out: HBE Max activity (%)
T1 construct: endogenous in cells; host or cells: primary human bronchial epithelial cells, F508del/MF genotype
Procedure: Ussing chamber experiments were performed using human bronchial epithelial (HBE) cells derived from CF subjects heterozygous for F508del and a minimal function CFTR mutation (F508del/MF-HBE) and cultured as previously described (Neuberger T, Burton B, Clark H, Van Goor F Methods Mol Biol 2011:741:39-54). After four days the apical media was removed, and the cells were grown at an air liquid interface for >14 days prior to use.
(§1) To isolate the CFTR-mediated short-circuit (ISC) current, F508del/MF-HBE grown on Costar® Snapwell™ cell culture inserts were mounted in an Ussing chamber and the transepithelial ISC was measured under voltage-clamp recording conditions (Vhold=0 mV) at 37° C. The basolateral solution contained (in mM) 145 NaCl, 0.83 K2HIPO4, 3.3 KH2PO4, 1.2 MgCl2, 1.2 CaCl2), 10 Glucose, 10 HEPES (pH adjusted to 7.4 with NaOH) and the apical solution contained (in mM) 145 NaGluconate, 1.2 MgCl2, 1.2 CaCl2), 10 glucose, 10 HEPES (pH adjusted to 7.4 with NaOH) and 30 μM amiloride to block the epithelial sodium channel. Forskolin (20 μM) was added to the apical surface to activate CFTR, followed by apical addition of a CFTR inhibitor cocktail consisting of BPO, GlyH-101, and CFTR inhibitor 172 (each at 20 μM final assay concentration) to specifically isolate CFTR currents. The CFTR-mediated ISC (μA/cm^2) for each condition was determined from the peak forskolin response to the steady-state current following inhibition.
The activity of the CFTR corrector compounds on the CFTR-mediated ISC was determined in Ussing chamber studies as described above. The F508del/MF-HBE cell cultures were either incubated with the corrector compounds at a range of concentrations in combination with 1 μM Ivacaftor or were incubated with the corrector compounds at a single fixed concentration of 10 μM in combination with 1 μM Ivacaftor for 18-24 hours at 37° C. and in the presence of 20% human serum. The concentration of corrector compounds with 1 μM Ivacaftor during the 18-24 hours incubations was kept constant throughout the Ussing chamber measurement of the CFTR-mediated ISC to ensure compounds were present throughout the entire experiment.
as §1, with “K2HPO4,” for “K2HIPO4,”

CFTR [2] = molecular target: CFTR (Homo sapiens, UniProt P13569); assay: Membrane Potential Dye, Enteroid Assay B; type: cell-based; conditions: for EC50: read-out: Ent. B EC50
How it was run: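 Membrane-potential fluorescence read over 15 min after chloride-free stimulation (forskolin 10 μM, IBMX 100 μM, Compound III 300 nM), with CaCCinh-A01 and Chicago Sky Blue present. Enteroids had 18-24 h compound exposure at 37 °C; activity given as % of the triple-combination corrector/potentiator reference response.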

[3] = with 1 μM Ivacaftor, 18-24 hours
[4] = range of concentrations with 1 μM Ivacaftor, 18-24 hours

T1 sequence (P13569 with tags, fused parts or gaps DEL508-508): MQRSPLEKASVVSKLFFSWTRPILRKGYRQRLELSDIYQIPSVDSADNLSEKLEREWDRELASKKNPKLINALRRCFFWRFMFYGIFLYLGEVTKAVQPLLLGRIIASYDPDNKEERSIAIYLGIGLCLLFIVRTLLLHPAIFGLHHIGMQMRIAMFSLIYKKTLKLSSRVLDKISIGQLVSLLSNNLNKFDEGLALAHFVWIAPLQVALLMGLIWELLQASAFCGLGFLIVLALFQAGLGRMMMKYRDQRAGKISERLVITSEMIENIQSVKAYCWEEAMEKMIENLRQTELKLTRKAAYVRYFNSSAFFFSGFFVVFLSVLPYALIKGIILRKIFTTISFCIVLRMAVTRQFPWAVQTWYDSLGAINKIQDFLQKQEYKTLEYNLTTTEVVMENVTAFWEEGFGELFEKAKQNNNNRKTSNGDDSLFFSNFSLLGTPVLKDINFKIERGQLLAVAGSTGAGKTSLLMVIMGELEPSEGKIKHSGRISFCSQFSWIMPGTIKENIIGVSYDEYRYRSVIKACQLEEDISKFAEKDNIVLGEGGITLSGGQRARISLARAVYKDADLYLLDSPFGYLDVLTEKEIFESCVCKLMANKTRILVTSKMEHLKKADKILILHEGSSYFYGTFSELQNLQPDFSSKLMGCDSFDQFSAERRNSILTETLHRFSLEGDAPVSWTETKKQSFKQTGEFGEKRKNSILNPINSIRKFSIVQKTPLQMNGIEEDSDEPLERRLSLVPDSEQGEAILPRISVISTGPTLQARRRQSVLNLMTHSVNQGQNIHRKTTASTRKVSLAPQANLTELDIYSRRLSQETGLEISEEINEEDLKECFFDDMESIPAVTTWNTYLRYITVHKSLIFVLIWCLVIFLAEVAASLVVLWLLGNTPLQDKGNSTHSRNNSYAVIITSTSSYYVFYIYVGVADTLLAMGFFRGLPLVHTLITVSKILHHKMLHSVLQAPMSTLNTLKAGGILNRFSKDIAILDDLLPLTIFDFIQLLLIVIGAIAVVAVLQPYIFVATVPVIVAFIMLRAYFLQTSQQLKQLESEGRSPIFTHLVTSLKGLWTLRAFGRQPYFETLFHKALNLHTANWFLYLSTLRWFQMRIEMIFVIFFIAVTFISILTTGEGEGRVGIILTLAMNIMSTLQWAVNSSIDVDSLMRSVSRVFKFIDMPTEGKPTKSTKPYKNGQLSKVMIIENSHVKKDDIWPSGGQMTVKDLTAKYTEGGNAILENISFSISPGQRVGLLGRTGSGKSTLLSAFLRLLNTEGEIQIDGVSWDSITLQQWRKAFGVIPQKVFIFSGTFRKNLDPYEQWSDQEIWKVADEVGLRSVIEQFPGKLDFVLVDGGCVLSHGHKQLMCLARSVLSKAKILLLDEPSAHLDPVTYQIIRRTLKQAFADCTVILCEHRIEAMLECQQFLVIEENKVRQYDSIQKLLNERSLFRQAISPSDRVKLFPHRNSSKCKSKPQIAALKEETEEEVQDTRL
Sequence of CFTR (Homo sapiens, UniProt P13569) (P13569 with tags, fused parts or gaps DEL508-508): as above

| EC50 (CFTR [1]; [3]) | HBE Max Activity (CFTR [1]; [3]) | Structure (SMILES) | other results |
| --- | --- | --- | --- |
|  |  | Cc1cccc(CC2CCOCC2)c1-c1nc2nc(c1C)OC[C@@H](CC(C)(C)C)N(Cc1ccc(N3CCOCC3)cn1)C(=O)c1cccc(c1)S(=O)(=O)N2 (atropisomer, axis not shown) [Compound 275] | HBE Activity at 10 μM (CFTR [1]; with 1 μM Ivacaftor): +++ (+++ is >600%) |
| < 1 µM | +++ (+++ is >600%) | Cc1cccc(CC2CCCCC2)c1-c1nc2nc(c1C)OC[C@@H](CC(C)(C)C)N(Cc1cccc(N(C)CC(C)(C)C)n1)C(=O)c1cccc(c1)S(=O)(=O)N2 (atropisomer, axis not shown) [Compound 259] |  |
| < 1 µM | +++ (+++ is >600%) | Cc1cccc(CC2CCCCC2)c1-c1nc2nc(c1C)OC[C@@H](CC(C)(C)C)N(Cc1ncc(N(C)C)cn1)C(=O)c1cccc(c1)S(=O)(=O)N2 (atropisomer, axis not shown) [Compound 303] |  |
|  |  | Cc1cccc(C)c1-c1nc2nc(c1C)OC[C@@H](CC1CC1)N(Cc1ncc(OC(C)C)cn1)C(=O)c1cccc(c1)S(=O)(=O)N2 [Compound 345] | EC50 (CFTR [1]; [4]): < 1 µM; Emax (CFTR [1]; [3]): > 60% |
| < 1 µM | +++ (+++ is >600%) | Cc1cccc(C2CC2)c1-c1nc2nc(c1C)OC[C@@H](CC(C)(C)C)N(Cc1ncc(N3CCOCC3)cn1)C(=O)c1cccc(c1)S(=O)(=O)N2 (atropisomer, axis not shown; (P)) [Compound 216, (5P,11R)-6-(2-Cyclopropyl-6-methyl-phenyl)-11-(2,2-dimethylpropyl)-7-methyl-12-[(5-morpholinopyrimidin-2-yl)methyl]-2,2-dioxo-9-oxa-2λ^6-thia-3,5,12,19-tetrazatricyclo[12.3.1.14,8]nonadeca-1(18),4(19),5,7,14,16-hexaen-13-one] |  |
| < 1 µM | +++ (+++ is >600%) | COCCN(C)c1cnc(CN2C(=O)c3cccc(c3)S(=O)(=O)Nc3nc(c(C)c(-c4c(C)cccc4CC4CCCCC4)n3)OC[C@H]2CC(C)(C)C)nc1 [Compound 283] |  |
| < 1 µM | +++ (+++ is >600%) | Cc1cccc(CC2CCCCC2)c1-c1nc2nc(c1C)OC[C@@H](CC(C)(C)C)N(Cc1ncc(N(C)C)cn1)C(=O)c1cccc(c1)S(=O)(=O)N2 (atropisomer, axis not shown) [Compound 304] |  |
|  |  | Cc1cccc(CC2COC2)c1-c1nc2nc(c1C)OC[C@@H](CC(C)(C)C)N(Cc1ncc(OC(C)C)cn1)C(=O)c1cccc(c1)S(=O)(=O)N2 [Compound 347] | HBE Activity at 10 μM (%) (CFTR [1]; single fixed concentration of 10 μM with 1 μM Ivacaftor, 18-24 hours): +++ (+++ is >60%) |
| < 1 µM | +++ (+++ is >600%) | Cc1cccc(C(C)C)c1-c1nc2nc(c1C)OC[C@@H](CC(C)(C)C)N(Cc1ccc(N3CCOCC3)cn1)C(=O)c1cccc(c1)S(=O)(=O)N2 (atropisomer, axis not shown) [Compound 300] |  |
| < 1 µM | +++ (+++ is >600%) | Cc1cccc(CC2CCCC2)c1-c1nc2nc(c1C)OC[C@@H](CC(C)(C)C)N(Cc1ncc(N3CCOCC3)cn1)C(=O)c1cccc(c1)S(=O)(=O)N2 (atropisomer, axis not shown) [Compound 280] |  |
| < 1 µM | +++ (+++ is >600%) | Cc1cccc(CC2CCCC2)c1-c1nc2nc(c1C)OC[C@@H](CC(C)(C)C)N(Cc1ccc(N3CCOCC3)cn1)C(=O)c1cccc(c1)S(=O)(=O)N2 (atropisomer, axis not shown) [Compound 289] |  |
| < 1 µM | +++ (+++ is >600%) | Cc1cccc(CC(C)C)c1-c1nc2nc(c1C)OC[C@@H](CC(C)(C)C)N(Cc1ncc(N3CCOCC3)cn1)C(=O)c1cccc(c1)S(=O)(=O)N2 (atropisomer, axis not shown) [Compound 295] |  |
|  |  | Cc1cccc(CC2CCOCC2)c1-c1nc2nc(c1C)OC[C@@H](CC(C)(C)C)N(Cc1ncc(N3CCC(C)(C)C3)cn1)C(=O)c1cccc(c1)S(=O)(=O)N2 (atropisomer, axis not shown) [Compound 271] | HBE Activity at 10 μM (CFTR [1]; with 1 μM Ivacaftor): +++ (+++ is >600%) |
| < 1 µM | +++ (+++ is >600%) | COCCN(C)c1cnc(CN2C(=O)c3cccc(c3)S(=O)(=O)Nc3nc(c(C)c(-c4c(C)cccc4CC(C)C)n3)OC[C@H]2CC(C)(C)C)nc1 (atropisomer, axis not shown) [Compound 294] |  |
|  |  | CCOc1cnc(CN2C(=O)c3cccc(c3)S(=O)(=O)Nc3nc(c(C)c(-c4c(C)cccc4CC(C)C)n3)OC[C@H]2CC(C)(C)C)nc1 (atropisomer, axis not shown) [Compound 339] | EC50 (CFTR [1]; [4]): < 1 µM; Emax (CFTR [1]; [3]): > 60% |
| 1 to 3 µM | +++ (+++ is >600%) | Cc1cccc(CC2CCCCC2)c1-c1nc2nc(c1C)OC[C@@H](CC(C)(C)C)N(Cc1ncc(N(C)CC(C)(C)C)cn1)C(=O)c1cccc(c1)S(=O)(=O)N2 (atropisomer, axis not shown) [Compound 282] |  |
| < 1 µM | +++ (+++ is >600%) | Cc1c2nc(nc1-c1ccccc1C(C)C)NS(=O)(=O)c1cccc(c1)C(=O)N(Cc1ccc(N3CCOCC3)cn1)[C@H](CC(C)(C)C)CO2 [Compound 182] |  |
| < 1 µM | +++ (+++ is >600%) | Cc1cccc(CC(C)C)c1-c1nc2nc(c1C)OC[C@@H](CC(C)C)N(Cc1ncc(CC(C)C)cn1)C(=O)c1cccc(c1)S(=O)(=O)N2 (atropisomer, axis not shown; (P)) [Compound 219, (5P,11R)-11-isobutyl-6-(2-isobutyl-6-methyl-phenyl)-12-[(5-isobutylpyrimidin-2-yl)methyl]-7-methyl-2,2-dioxo-9-oxa-2^6-thia-3,5,12,19-tetrazatricyclo[12.3.1.14,8]nonadeca-1(18),4(19),5,7,14,16-hexaen-13-one] |  |
|  |  | Cc1cccc(C)c1-c1nc2nc(c1C)OC[C@@H](CC(C)(C)C(F)(F)F)N(C1CC3(CCNCC3)C1)C(=O)c1cccc(c1)S(=O)(=O)N2 [Compound 157, (11R)-12-{7-Azaspiro[3.5]nonan-2-yl}-6-(2,6-dimethylphenyl)-7-methyl-11-(3,3,3-trifluoro-2,2-dimethylpropyl)-9-oxa-2λ^6-thia-3,5,12,19-tetraazatricyclo[12.3.1.14,8]nonadeca-1(17),4(19),5,7,14(18),15-hexaene-2,2,13-trione] | Ent. B Max Activity (CFTR [2]): +++ (+++ is >60%); EC50 (CFTR [2]): < 1 µM |
|  |  | Cc1cccc(C)c1-c1nc2nc(c1C)OC[C@@H](CC1(C(F)(F)F)CC1)N(C1CC3(CC(NC(=O)OC(C)C)C3)C1)C(=O)c1cccc(c1)S(=O)(=O)N2 (stereo in doubt) [Compound 87] | Ent. B Max Activity (CFTR [2]): +++ (+++ is >60%); EC50 (CFTR [2]): < 1 µM |
|  |  | Cc1cccc(C)c1-c1nc2nc(c1C)OC(c1ccc(CC3(C(F)(F)F)CC3)cn1)CN(C)C(=O)c1cccc(c1)S(=O)(=O)N2 (stereo not shown) [Compound 205] | Ent. B Max Activity (CFTR [2]): +++ (+++ is >60%); EC50 (CFTR [2]): < 1 µM |
|  |  | Cc1cccc(C)c1-c1nc2nc(c1C)OCCN(C1CC3(CC(NC(=O)OC(C)(C)C)C3)C1)C(=O)c1cccc(c1)S(=O)(=O)N2 (stereo not shown) [Compound 37] | Ent. B Max Activity (CFTR [2]): ++ (++ is 30-60%); EC50 (CFTR [2]): < 1 µM |
|  |  | COc1ccccc1-c1c2nc(nc1-c1c(C)cccc1C)NS(=O)(=O)c1cccc(c1)C(=O)N[C@H](C)CO2 [Compound 123, (11R)-6-(2,6-Dimethylphenyl)-7-(2-methoxyphenyl)-11-methyl-2,2-dioxo-9-oxa-2λ^6-thia-3,5,12,19-tetrazatricyclo[12.3.1.14,8]nonadeca-1(18),4(19),5,7,14,16-hexaen-13-one] | Ent. B Max Activity (CFTR [2]): +++ (+++ is >60%); EC50 (CFTR [2]): 1 to 3 µM |
